Earlier results as cited in patent US20110029296A1, “Metabolic analysis apparatus and metabolic analysis method” (FUJITSU LIMITED, priority 2009, published 2011).

Molecular target: CYP2E1 (Homo sapiens, UniProt P05181)
Sequence (P05181 whole entry, species assumed): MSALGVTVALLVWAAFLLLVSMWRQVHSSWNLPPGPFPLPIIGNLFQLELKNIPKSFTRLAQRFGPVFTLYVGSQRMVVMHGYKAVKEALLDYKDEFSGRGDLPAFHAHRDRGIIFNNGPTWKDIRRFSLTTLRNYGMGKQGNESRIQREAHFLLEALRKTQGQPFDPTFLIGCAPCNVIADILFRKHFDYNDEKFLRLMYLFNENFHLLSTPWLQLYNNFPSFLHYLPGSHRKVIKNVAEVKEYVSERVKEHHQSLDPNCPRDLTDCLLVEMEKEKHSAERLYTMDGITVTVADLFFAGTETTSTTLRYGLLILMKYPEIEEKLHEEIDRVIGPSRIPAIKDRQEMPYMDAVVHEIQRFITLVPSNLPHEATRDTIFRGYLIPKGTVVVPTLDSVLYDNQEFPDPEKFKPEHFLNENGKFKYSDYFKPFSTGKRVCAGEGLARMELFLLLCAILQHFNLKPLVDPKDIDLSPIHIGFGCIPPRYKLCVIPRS

Q: Which “metabolism by CYP2E1” value (forms a complex with CYP2E1) does the source give for `Nc1cc2c3ccccc3ccc2c2ccccc12` [6-aminochrysene] here?
A: not metabolized by CYP2E1

Q: And the “effect on the metabolic reaction of CYP2E1” value (inhibition by the amino group)?
A: inhibitor which inhibits the metabolic reaction of CYP2E1
